Experimental findings from paper PMC7845544 (Frontiers in Pharmacology, 2021) are described below.

Several values for one entry are separate records, joined by “and”; a condition that tells them apart may be missing. Equal entries are not always repeated. Entries after “also recorded” stand apart in the source; their conditions may differ.

One series deals with CYP3A4 (Homo sapiens, UniProt P08684). As to the kind of experiment: Cytochrome P450 inhibition. As to conditions: b51 words it as 52% of vehicle. The format is in vitro ADME.
Chain of CYP3A4 (P08684 whole entry): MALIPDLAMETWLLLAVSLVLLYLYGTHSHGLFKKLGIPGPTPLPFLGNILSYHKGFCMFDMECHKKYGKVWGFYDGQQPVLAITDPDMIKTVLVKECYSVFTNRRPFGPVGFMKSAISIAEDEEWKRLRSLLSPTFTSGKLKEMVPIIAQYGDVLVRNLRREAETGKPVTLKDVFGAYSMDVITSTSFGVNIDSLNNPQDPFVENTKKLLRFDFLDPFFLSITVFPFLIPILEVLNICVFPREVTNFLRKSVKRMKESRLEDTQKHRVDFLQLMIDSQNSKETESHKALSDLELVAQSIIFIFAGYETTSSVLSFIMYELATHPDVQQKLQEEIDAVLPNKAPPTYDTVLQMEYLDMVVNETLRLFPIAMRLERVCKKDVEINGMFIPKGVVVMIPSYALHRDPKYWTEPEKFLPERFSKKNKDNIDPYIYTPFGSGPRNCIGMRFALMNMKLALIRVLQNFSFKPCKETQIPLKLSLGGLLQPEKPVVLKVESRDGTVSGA
A further series can be described thus: Solubility in PBS. It counts as physicochemical. As to conditions: PBS (pH 7.4).
The subject of the next series is 55 targets. Kind of series: Single concentration Cerep profile (Eurofins). It counts as binding. As to conditions: 10 uM.
In a further series the test system is Cl-channel (GABA-gated). The following applies: dose response.
For another series, the system named is beagle dogs. As to the kind of experiment: 14-day toxicity and toxicokinetics in Beagle dog. The format is in vivo. Here is the method:
Male and female beagle dogs were received from Beijing Marshall Biotechnology Co., Ltd (Beijing, China) and group housed at Covance (Shanghai, China), except for 5 h each day in stainless steel cages for study-related procedures. […] Blood samples (approximately 1.0 ml) were collected for thyroid hormone analysis on Days 0, prior to dosing, 24 h post dose (prior to second dose on Day 2) and once prior to dosing on Day 14. Blood was collected into serum separator tubes (without anticoagulant), allowed to clot at room temperature, and centrifuged for approximately 10 min in a refrigerated centrifuge at approximately at 3,500 g within 2 h of collection. Serum was harvested and placed in a freezer for subsequent thyroid hormone measurement.

For a further series, the system named is 211 kinases. As to the kind of experiment: Kinase profile (Eurofins). It counts as biochemical.
Another series relates to Adenosine A3 receptor. The following applies: dose response.
The test system of another series is immature B6C3F1 mice. As to the kind of experiment: Superovulation assay in immature mice. The format is in vivo, mouse. The following applies: 30 and 100 mg/kg, mice receiving low dose rec-hFSH (0.15 IU). Here is the method: Immature SD rats and B6C3F1 mice (both 18–21 day old females) were purchased from Charles-River laboratories (Wilmington, MA, United States and Shanghai, China). All animals were treated in accordance to Chempartner (Shanghai, China) or Embryotech (Haverhill, MA, United States) IACUC approved animal protocols. The animals were provided water and food ad libitum and housed under 12 h dark and 12 h light schedules.
Immature rats and mice were used to investigate the ability of the small molecules to induce follicular development and support ovulation as described elsewhere ([Steelman and Pohley, 1953]) with modifications ([Sriraman et al., 2014]). […] […] The isolated COC’s were treated with hyaluronidase and the total number of ovulated oocytes was determined microscopically.
[…] […] In some experiments, serum was collected from the animals prior to the ovulatory dose of hCG to determine estradiol levels. Plasma concentrations of FSHR-AA were measured during superovulation assays, except for experiments where plasma was collected for estradiol measurements.

A further series is described as follows: Monkey pharmacokinetics. It counts as in vivo. As to conditions: data not shown.
For the next series, the target named is hERG (Homo sapiens, UniProt Q12809). As to the kind of experiment: hERG channel inhibition (Cyprotex). The format is biochemical.
Chain of hERG (Q12809 whole entry): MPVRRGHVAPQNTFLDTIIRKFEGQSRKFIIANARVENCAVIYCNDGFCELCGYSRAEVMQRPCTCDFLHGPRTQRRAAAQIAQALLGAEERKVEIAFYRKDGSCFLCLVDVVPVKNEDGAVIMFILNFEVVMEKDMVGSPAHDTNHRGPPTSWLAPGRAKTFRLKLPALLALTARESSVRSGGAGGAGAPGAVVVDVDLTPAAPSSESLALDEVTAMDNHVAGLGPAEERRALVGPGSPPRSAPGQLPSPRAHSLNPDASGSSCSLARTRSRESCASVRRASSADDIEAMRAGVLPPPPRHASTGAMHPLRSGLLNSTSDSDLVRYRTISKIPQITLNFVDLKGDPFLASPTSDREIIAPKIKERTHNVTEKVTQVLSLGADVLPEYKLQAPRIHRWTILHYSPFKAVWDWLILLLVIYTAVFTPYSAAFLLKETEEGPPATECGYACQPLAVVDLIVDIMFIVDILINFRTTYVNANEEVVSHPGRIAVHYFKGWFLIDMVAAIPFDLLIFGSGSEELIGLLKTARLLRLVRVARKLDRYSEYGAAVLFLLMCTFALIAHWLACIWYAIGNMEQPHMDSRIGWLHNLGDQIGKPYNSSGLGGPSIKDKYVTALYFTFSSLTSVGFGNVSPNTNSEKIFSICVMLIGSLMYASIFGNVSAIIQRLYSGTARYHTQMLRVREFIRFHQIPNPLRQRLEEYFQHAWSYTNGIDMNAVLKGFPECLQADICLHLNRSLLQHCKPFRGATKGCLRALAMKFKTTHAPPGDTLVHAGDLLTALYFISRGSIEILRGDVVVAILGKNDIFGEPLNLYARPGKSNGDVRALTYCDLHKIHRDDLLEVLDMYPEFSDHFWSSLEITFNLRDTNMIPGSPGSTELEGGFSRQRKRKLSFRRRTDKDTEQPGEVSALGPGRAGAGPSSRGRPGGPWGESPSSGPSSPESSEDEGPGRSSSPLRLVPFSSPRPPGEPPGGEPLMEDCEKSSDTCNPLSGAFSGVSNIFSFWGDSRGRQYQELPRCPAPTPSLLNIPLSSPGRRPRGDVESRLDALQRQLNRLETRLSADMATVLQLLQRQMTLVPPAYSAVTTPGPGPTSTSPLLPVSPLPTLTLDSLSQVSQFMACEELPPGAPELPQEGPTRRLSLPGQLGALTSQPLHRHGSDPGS
The test system of another series is Sprague Dawley rats. Here is the method:
Toxicological evaluations were performed in both rat and dog as the second species according to the guidance from FDA. […] The animals were administered vehicle or 30, 100, 300 and 1,000 mg/kg by oral gavage for 14 days. […] Separate groups of animals (n = 6/sex/dose) were used for toxicokinetic (TK) analysis. On day 1 and day 14 of drug administration, serial blood samples were collected from 5 min to 24 h from the TK group animals for analytical measurement of the compound. Blood samples were placed on ice immediately after collection and were centrifuged at approximately 8,000 rpm for 6 min at 2–8°C and the resulting plasma were separated and stored in pre-labeled plastic tubes or vials. The amount of compound in the plasma samples were measure using an HPLC method. […] Evaluated parameters included; mortality, clinical signs, body weight, food consumption, urinalysis, hematology, clinical chemistry, gross post mortem examinations, organ weights and histopathological evaluations of selected tissues. At the end of 14-days of treatment, animals were sacrificed and blood collected for serum chemistry, coagulation and hematological analysis, organ weighed and histological analysis performed in select tissue from control and high dose group.

Another series relates to PDE isoforms. As to the kind of experiment: Phosphodiesterase (PDE) profile (Eurofins). The format is biochemical. As to conditions: 9 isoforms PDE.
The next series can be described thus: Dog pharmacokinetics. The format is in vivo. The following applies: 10 mg/kg.

As for `COc1cc(C(N)=O)cc(-c2cc3c(cc2OC)OCc2c(C(=O)N(C)C(C)(C)C)nn(-c4cc(Cl)cc(Cl)c4)c2-3)n1` [TOP5668], the “CYP inh @ 10 µM, CYP3A4 (midazolam)” value at CYP3A4 was “CYP3A4 (midazolam) = 50.6%”. In addition, the “fold more soluble than TOP5300” value in the series “Solubility in PBS” is given as 14 fold.
Consider `COc1cc2c(cc1-c1cnn(CCO)c1)-c1c(c(C(=O)N(C)C(C)(C)C)nn1-c1cc(Cl)cc(Cl)c1)CO2` [TOP5300], for which, in the series on 55 targets, the “number of targets < 60% inhibition” value is listed as 52 targets and the “number of targets > 60% inhibition” value was determined as 3 targets. Besides, the “selectivity / safety margin compared to FSHR, Cl-channel (GABA-gated)” value in the series with Cl-channel (GABA-gated) is recorded as “over 400 fold”. For the same compound, the “mortality or morbidity, dog” value in the series on beagle dogs (14 days, up to 1,000 mg/kg) is “no mortality or morbidity occurred”. In the series with beagle dogs (dog, in vivo, po), the “NOAEL, dog” value was 1,000 mg/kg/day. The “Kinase profile @ 10 uM” value with 211 kinases is reported as “N o si g ni fi cant i nhi bi ti on any; also recorded: failed to inhibit activity”. Also, the “selectivity / safety margin compared to FSHR, A3(h)” value with Adenosine A3 receptor was “over 400 fold”. Moreover, the “follicular growth and ovulation” value in the series with immature B6C3F1 mice is “dose-dependent increases in follicular growth and ovulation”. The “half-life, monkey PK” value in “Monkey pharmacokinetics” turned out to be 12.1 h. Moreover, the hERG assay result on hERG was “inactive”. Also, the “hERG channel inhibition @ 10 uM” value on hERG (10 uM) is 16 % inhibition. For the same compound, the “margin of safety between first significant efficacy (5 mg/kg) and NOAEL (300 mg/kg)” value in the series with Sprague Dawley rats (rat) is 60 fold. The “accumulation after 14-days repeated dosing” value in the series with Sprague Dawley rats (rat, in vivo) is “not observed”. Besides, in the series on Sprague Dawley rats (rat, in vivo, po), the “NOAEL, female rat” value was 300 mg/kg; the “NOAEL, male rat” value is recorded as 1,000 mg/kg; the “Tmax, Day1” value fell in the range of 2 to 8 h; the “Tmax, Day14” value lay in the range of 2 to 8 h. The “mortality, rat” value in the series with Sprague Dawley rats (up to 1,000 mg/kg, 14 days) is on record as “all animals survived the duration of the study”. The “PDE profile @ 10 uM” value with PDE isoforms is on record as “N o si g ni fi cant i nhi bi ti on any”. In addition, in “Dog pharmacokinetics”, the “Dog PK AUC” value is reported as 8,719 ng*h/ml; the “Dog PK T1/2” value was 9 h and 9.4 h. In “Dog pharmacokinetics” (oral bioavailability), the “Dog PK F%” value is on record as 32%.
